These results are taken from PMC11554998, “Machine learning-aided search for ligands of P2Y6 and other P2Y receptors” (Purinergic Signalling, 2024).

One test concerns the target T1, P2Y6 receptor (hP2Y6R) (Homo sapiens, UniProt Q15077).
T1 construct: gene P2RY6
As to the kind of experiment: FLIPR calcium mobilization, inhibition of UDP ([…]) response in […]1-hP2Y6R cells. It counts as cell-based. Conditions: read-out: P2Y6R, mean IC50 ± SEM (μM) or % inhibition at 400 μM^a. (A change in cytosolic calcium serves as a functional read-out for many receptors and channels.)

The target of a further test is T2, P2Y14 receptor (hP2Y14R) (Homo sapiens, UniProt Q15391).
T2 construct: gene P2RY14
T2 sequence (Q15391 1-338): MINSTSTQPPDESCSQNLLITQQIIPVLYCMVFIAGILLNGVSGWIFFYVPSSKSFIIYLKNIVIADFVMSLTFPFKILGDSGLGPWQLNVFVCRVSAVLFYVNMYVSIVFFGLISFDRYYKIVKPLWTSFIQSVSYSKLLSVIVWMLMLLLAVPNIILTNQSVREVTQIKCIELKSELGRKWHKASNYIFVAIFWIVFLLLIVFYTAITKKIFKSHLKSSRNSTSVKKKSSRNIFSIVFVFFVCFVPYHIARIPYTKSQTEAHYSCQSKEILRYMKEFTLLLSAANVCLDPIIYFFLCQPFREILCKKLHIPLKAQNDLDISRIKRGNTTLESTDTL
As to the kind of experiment: competitive binding vs fluorescent antagonist MRS4174, whole CHO-hP2Y14R cells, flow cytometry; single concentration […]. It is filed as cell-based. The settings on record: read-out: P2Y14, % inhibition at 100 μM (n = 3).

Molecules are shown by their SMILES.

As usually defined, the IC50 is the concentration needed to halve the response being measured. In general, inhibition refers to the share of the control response that was lost under treatment.

T1 sequence (Q15077 whole entry): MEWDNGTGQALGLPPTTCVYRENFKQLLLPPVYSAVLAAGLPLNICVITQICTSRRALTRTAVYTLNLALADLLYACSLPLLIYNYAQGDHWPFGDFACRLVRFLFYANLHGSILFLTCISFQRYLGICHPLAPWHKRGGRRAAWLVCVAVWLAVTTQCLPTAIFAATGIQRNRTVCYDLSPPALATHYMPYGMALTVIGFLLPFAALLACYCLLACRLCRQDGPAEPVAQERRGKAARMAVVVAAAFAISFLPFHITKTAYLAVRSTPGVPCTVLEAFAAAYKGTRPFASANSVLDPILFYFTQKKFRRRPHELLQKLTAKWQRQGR

On to `CCNC(=O)c1cc2c(-c3cc(C(C)(C)O)ccc3Oc3c(C)cc(F)cc3C)cn(C)c(=O)c2[nH]1` [ABBV-744], for which the IC50 at P2Y6 receptor (hP2Y6R) is 75.7 ± 11.5 µM.
As for `COc1cccc([C@@H](Oc2ccc3c(cnn3-c3ccc(F)cc3)c2)[C@H](C)NC(=O)C(F)(F)F)c1` [AZD5423], on P2Y6 receptor (hP2Y6R), the IC50 is 574 ± 181 µM.
Turning to `Cc1cc(C(=O)Nc2cc(Oc3ccc4nc(NC(=O)C5CC5)cn4n3)ccc2C)n(C)n1` [TAK-593], the inhibition at 100 µM at P2Y14 receptor (hP2Y14R) was 50 ± 4%.
